Values quoted from earlier work in article PMC5686165, “Plant-to-plant communication triggered by systemin primes anti-herbivore resistance in tomato” (Scientific Reports, 2017).

System: A. ervi
Details: tomato and A. ervi
Experimental: The possible biological relevance of the systemin-triggered priming was evaluated using three different types of source plants. […] The qualitative and quantitative differences in VOCs emissions were confirmed by PLSDA analysis and explain the effect on parasitoid attraction. Compared to R-S4, all receiver plants, after 24 hours of exposition to the t ...

In the case of `C=C(C)CC(C)CCC` (stereo not shown) [2,4-dimethyl-1-heptene], the “elicitation of indirect defense in inter-specific plant-to-plant communication” value is listed as “powerful elicitor of indirect defense”.
